Strand notation (5' to 3'): a small letter for the sugar, then the base; units joined by * are phosphorothioate-linked, units joined directly phosphodiester-linked; [ ] holds rarer units or linkages, { } end groups; capitals alone tell only the bases. e = 2'-O-(2-methoxyethyl) (MOE); [5mC] = 5-methylcytosine; d = 2'-deoxy (DNA)
Assay: Organ weights: liver, white adipose tissue, spleen, kidney (Example 4, Table 33)
Assay type: in vivo, mouse
Details: 48 h, C57/BL6 mice
Procedure: Eight-week old male C57/BL6 mice (Jackson Laboratory, Bar Harbor, Me.) were administered a single dose of GCGR oligonucleotide by intraperitoneal injection at a concentration of […]. Each dose group consisted of four animals. Shown in Table 31 are the sequences, motifs and conjugates of the GCGR antisense compounds used in this study. Bolded residues indicate 2′-O-methoxyethyl (2′-MOE) moieties. All compounds comprise phosphorothioate internucleoside linkages throughout and each cytosine is replaced with 5-methylcytosine. ISIS 386626, ISIS 386627 and ISIS 386628 further comprise a C16 conjugate group attached to the 2′-O position of the sugar via a diamide linkage (2′-OCH2C(═O)N(H)(CH2)4N(H)C(═O)—(CH2)15CH3). GCGR antisense compounds target published GCGR sequences, including Genbank® Accession No. BC031885.1 (SEQ ID NO: 7).
Mice were sacrificed 48 hours following injection to determine serum transaminase levels (Table 32); liver, white adipose tissue (WAT), spleen and kidney weight (Table 33); cholesterol, triglyceride and glucose levels (Table 34); GCGR mRNA levels (Tables 35-41); and full-length and total oligonucleotide concentration in liver and kidney (Table 42). Endpoints were assessed using methods described herein and well known to those of ordinary skill in the art. Data is included from a pre-treatment bleed (Pre-Bleed) and post-treatment bleed (Post-Bleed).

Question: Which “Organ weight: Kidney” value (6.25 mg/kg single i.p.) does the source give for “148364 (antisense eT*eG*e[5mC]*eA*e[5mC]*dT*dT*dT*dG*dT*dG*dG*dT*dA*d[5mC]*e[5mC]*eA*eA*eG*eG) [compound 148364]” here?
Answer: 104 % saline control

Question: What about the “Organ weight: Liver” value (6.25 mg/kg single i.p.) of the same substance?
Answer: 101 % saline control

Question: And the “Organ weight: Spleen” value (6.25 mg/kg single i.p.)?
Answer: 113 % saline control

Question: And the “Organ weight: WAT” value (6.25 mg/kg single i.p.)?
Answer: 89 % saline control

Question: What about the “Organ weight: Kidney” value (12.5 mg/kg single i.p.) of the same substance?
Answer: 108 % saline control

Question: And the “Organ weight: Liver” value (12.5 mg/kg single i.p.)?
Answer: 100 % saline control

Question: What about the “Organ weight: Spleen” value (12.5 mg/kg single i.p.) of the same substance?
Answer: 96 % saline control

Question: What about the “Organ weight: WAT” value (12.5 mg/kg single i.p.) of the same substance?
Answer: 84 % saline control

Question: And the “Organ weight: Kidney” value (25 mg/kg single i.p.)?
Answer: 112 % saline control

Question: And the “Organ weight: Liver” value (25 mg/kg single i.p.)?
Answer: 103 % saline control

Question: And the “Organ weight: Spleen” value (25 mg/kg single i.p.)?
Answer: 115 % saline control

Question: And the “Organ weight: WAT” value (25 mg/kg single i.p.)?
Answer: 75 % saline control

Question: What about the “Organ weight: Kidney” value (50 mg/kg single i.p.) of the same substance?
Answer: 108 % saline control

Question: And the “Organ weight: Liver” value (50 mg/kg single i.p.)?
Answer: 103 % saline control

Question: And the “Organ weight: Spleen” value (50 mg/kg single i.p.)?
Answer: 123 % saline control

Question: And the “Organ weight: WAT” value (50 mg/kg single i.p.)?
Answer: 80 % saline control
